Like-named read-outs stand apart in the source and are kept apart here. Peptide text beside a SMILES is read from it. * marks the point of attachment. Cbz = O=C(OCc1ccccc1)*
Key:
[1] = target: recombinant HDAC2 (rHDAC2) (Homo sapiens, UniProt Q92769); experiment: Cell-free enzymatic activity of recombinant HDAC2; type: biochemical
Protocol: (§1) HDAC activity was measured using a fluorescent derivative of ε-acetyl-lysine from Enzo life sciences (Farmingdale, N.Y.) according to the manufacturer's recommendations. HDAC2 was immunoprecipitated for analysis of enzymatic activity.

[2] = target: T1, HDAC2 (Homo sapiens, UniProt Q92769); experiment: Cell-free denitrosylation and activity of HDAC2 (cell lysates, IP-HDAC2); type: biochemical
T1 construct: HDAC2 was immunoprecipitated for analysis of enzymatic activity; endogenous in cells; host or cells: alveolar macrophages from patients with COPD; HDAC2 immunoprecipitated with the Santa Cruz antibody
Protocol: as §1
(§2) Macrophage cell or lung tissue extracts were prepared by using 100 μL of immunoprecipitation buffer (50 mM Tris-HCl, pH 8.0, 150 mM NaCl, 1.0% Triton X-100, 0.5% NP-40, 0.1% SDS, 0.5% deoxycholate, and complete protease inhibitor cocktail) from Roche (Morristown, N.J.). The lysis mixture was incubated on ice for 15 minutes and microcentrifuged for 10 minutes at 4° C. Extracts were precleared with 20 μL protein A/G sepharose beads (a 50:50 mix) from Thermo scientific (Rockford, Ill.) and 2 μg of normal IgG. After microcentrifugation, 20 μL of protein A/G sepharose conjugated with 5 μg of antibody was used to precipitate HDAC2 (Santa Cruz Biotechnology, Santa Cruz, Calif.) overnight at 4° C. with rotation. The immune complexes were pelleted with gentle centrifugation, washed twice with 1 mL of immunoprecipitation buffer, and divided equally for the final wash for the activity assay and immunoblotting. For the HDAC assay, immunoprecipitates were resuspended in the activity assay buffer (50 mM TrisHCl, pH 8.0; 10% glycerol; 1 mM dithiothreitol; 0.1 mM EDTA, complete protease inhibitor cocktail). For HDAC2-specific western blotting, immune complexes were washed three times with the immunoprecipitation buffer and finally resuspended in Laemmli buffer for the SDS-PAGE.
S-nitrosylated proteins were detected by using the nitrate/nitrite fluorometric assay kit from Cayman chemicals (Ann Arbor, Mich.) according to the manufacturer's instructions. For HDAC2-specific nitrosylation detection, cells were lysed in buffer (50 mM Tris-HCl, pH 8.0, 150 mM NaCl, 1% Nonidet P-40, 0.5% deoxycholic acid, 0.1% SDS). These lysates were then subjected to immunoprecipitation by using an anti-HDAC2 antibody as described above. The immunoprecipitates were washed twice with lysis buffer and twice with PBS. The pellets were resuspended in 500 μL of PBS. After the addition of 100 μM HgCl2 and 100 μM DAN, the samples were incubated in the dark at 25° C. for 30 minutes, and 1 M NaOH was added. The generated fluorescent triazole from the reaction of the DAN with the NO released from the HDAC2 protein was measured by using an excitation wavelength of 375 nm and an emission wavelength of 450 nm. As a negative control, the antibody alone in lysis buffer was immunoprecipitated. The resulting background fluorescence intensity was subtracted for each experiment.

[3] = test system: HDAC2; type: cell-based, human
Protocol: (§3) For inducing corticosteroid resistance, PMs were exposed to cigarette smoke condensate (CSC, 100 μg/ml; Murty Pharmaceuticals, Lexington, Ky.) for 16 h. Exposure to S-nitrosoglutathione (GSNO, 10 μM) was limited to 4 h. […] For assessing corticosteroid responsiveness, macrophages were incubated with dexamethasone (1 μM, Sigma) for 1 h followed by LPS (100 ng/ml, Sigma) for additional 4 h.
as §1, §2

[4] = test system: glutathione; experiment: Intracellular glutathione levels in COPD macrophages; type: cell-based, human; conditions: COPD alveolar macrophages
[5] = test system: HDAC2; experiment: Posttranslational modification of HDAC2 in alveolar macrophages (immunoblot, DAN, biotin-switch); type: cell-based, human; conditions: for levels of SNO-HDAC2: GSNO-exposed alveolar macrophages
Protocol: S-nitrosylation of proteins was analyzed by anti-SNO antibody, biotin switch assay, and or 2,3-diaminonapthalene (DAN) assay. […] Detail methodology is described in supplementary data.
as §2
For HDAC2-specific nitrosylation detection, cells were lysed in buffer (50 mM Tris-HCl, pH 8.0, 150 mM NaCl, 1% Nonidet P-40, 0.5% deoxycholic acid, 0.1% SDS). […] The pellets were resuspended in 500 μL of PBS.
This assay was performed in the dark.
The Image J program was used for densitometry analyses.

[6] = test system: IL-8; experiment: Corticosteroid responsiveness: basal and LPS-induced IL-8 secretion by alveolar macrophages; type: cell-based, human
Protocol: as §3
For human IL-8 and mouse IL-6 and MCP-1 proteins, Quantikine ELISA kits from R&D systems (Minneapolis, Minn.) were used according to the manufacturer's instructions.

[7] = test system: Pseudomonas aeruginosa; experiment: Clearance of bacteria in vitro by alveolar macrophages (PA); type: cell-based; conditions: COPD alveolar macrophages
Protocol: Human alveolar macrophages were purified from individual BAL samples by centrifugation and seeded onto 6-well tissue culture plates. After incubation for 2 h, non-adherent cells were removed and the adherent cells were incubated with R, S-sulforaphane (5 μM; LKT Laboratories, Inc., St. Paul, Minn.) and or DMSO in RPMI 1640 culture medium with 10% FBS and 1% penicillin-streptomycin (Invitrogen, Carlsbad, Calif.). After 16-20 h, adherent cells were scraped, suspended in RPMI 1640 culture media and plated onto 96-well tissue culture plates for bacterial phagocytosis and clearance assays. […] For MARCO antibody-depletion, alveolar macrophages were incubated with human anti-MARCO antibody (1 μg/ml; (Hycult, Uden, The Netherlands) for 4 hours prior to bacterial challenge.
Sputum isolates of nontypeable H. influenzae and P. aeruginosa obtained from patients with COPD at the Department of Veterans Affairs, Western New York Healthcare System were used (S. Sethi, N. Evans, B. J. Grant, T. F. Murphy, N Engl J Med 347, 465 (Aug. 15, 2002); C. S. Berenson, M. A. Garlipp, L. J. Grove, J. Maloney, S. Sethi, J Infect Dis 194, 1375 (Nov. 15, 2006); T. F. Murphy et al., Am J Respir Crit Care Med 177, 853 (Apr. 15, 2008); T. F. Murphy, A. L. Brauer, A. T. Schiffmacher, S. Sethi, Am J Respir Crit Care Med 170, 266 (Aug. 1, 2004)). For bacterial growth, H. influenzae was cultured on chocolate agar or grown in brain heart infusion broth supplemented with 20 μg/mlNAD and 10 μg/ml hemin at 35° C. in 5% CO2. P. aeruginosa was cultured on LB agar plates or in LB broth at 37° C. For FITC-labeling of bacteria, heat inactivated PA and NTHI (10^9 CFU/ml) were resuspended in 1 ml of labeling buffer (0.1 M NaHCO3, pH 9.2) and incubated with fluorescein isothiocyanate (FITC) (Sigma) under constant stiffing in the dark at room temperature for 1 h. Finally, bacteria were washed three times with PBS and dialyzed overnight against PBS. FITC-labeled bacteria were resuspended with PBS at a concentration of 10^9/ml.
After treatment, macrophages (10^5 cells) were incubated with bacteria (PA or NTHI) for 4 h. Subsequently, 100 μL of cell free culture medium was aseptically plated and cultured on tryptose blood and or chocolate agar plates at 37° C. The number of bacterial colonies was counted after 24 h.

[8] = test system: NO; experiment: NO levels and iNOS expression in alveolar macrophages; type: cell-based, human; conditions: COPD alveolar macrophages, vs vehicle
Protocol: as §3, §1
(§4) Total RNA was extracted from the cells by lysis and specific binding to a silica membrance (Qiagen RNeasy kit, Qiagen, Valencia, Calif.), and qRT-PCR was performed by using primers and probe sets for human IL-8, NQO1, GCLM, and iNOS (Assay-on-Demand, Applied Biosystems, Foster City, Calif.). A real-time fluorescent PCR system (ABI 7000 Taqman system, Applied Biosystems) was used to perform these assays. β-actin was used as the normalization control.

[9] = test system: IL-8 promoter; experiment: ChIP of IL-8 promoter (histone acetylation, HDAC2 binding) in alveolar macrophages; type: cell-based, human
Protocol: as §3
Chromatin immunoprecipitation was performed as described previously (Hogg, J. C. & Timens, W., Annu Rev Pathol (2008)). Briefly, cells were fixed in ˜1% formaldehyde in cell growth media for 10 minutes followed by glycine fixation. Cells were then sonicated in ChIP-lysis buffer containing a protease inhibitor cocktail after incubation on ice for 30 minutes. […] sonication, the samples were spun at maximum speed for 12 minutes in a cold microcentrifuge. The supernatants were then addressed as input samples. A part of the input sample was precleared by using a 50% slurry of protein A/G beads prepared in immunoprecipitation (IP) buffer for 2 hours in the cold, following which the beads were centrifuged out and the supernatant was used for IP. Then the precleared samples were incubated with 2 μg of panacetylated histone H4 antibody (ChIP assay kit; Upstate Biotechnology) or anti-HDAC2 antibody from Santa Cruz Biotechnology. As a control, anti-rabbit IgG antibody was added for 1 hour in the cold. The protein A/G bead slurry was added to each reaction and was rotated overnight. The next day, the beads were washed extensively, and the DNA was reverse crosslinked, eluted in elution buffer, and stored at −80° C. until used for sequencing or PCR validation assays. […] This immunoprecipitated DNA was used for PCR amplification by using the specific gene (IL-8 for humans and MCP-1 for mice) promoter PCR assays. PCR primers were used for the IL-8 promoter (forward: 5′-[…]-3′ and reverse: 5′-[…]-3′) and the MCP-1 promoter (forward: 5′-[…]-3′ and reverse: 5′-[…]-3′).

[10] = test system: HDAC2; type: cell-based, human; conditions: COPD alveolar macrophages
Protocol: as §3
All immunoblots were performed by using protocols as described previously (Barnes, P. J., N Engl J Med 343, 269-280 (2000)). Rabbit anti-HDAC2 antibody from Santa Cruz Biotechnology (Santa Cruz, Calif.) was used at 1:500 dilutions. Rabbit anti-5-nitroso-cysteine antibody from Alpha diagnostics was used at 1:500 dilutions. Rabbit anti-nitro-tyrosine antibody from Cell Signaling Technology, was used at 1:250 dilution. Rabbit anti-ubiquitin antibody from Santa Cruz Biotechnology (Santa Cruz, Calif.) was used at 1:1000 dilutions. Rabbit anti-GR antibody from Santa Cruz Biotechnology (Santa Cruz, Calif.) was used at a dilution of 1:1000. Rabbit anti-MMP9 antibody from Sigma Aldrich was used at 1:500 dilutions. Rabbit anti-acetyl-lysine antibody from Abcam was used at 1:750 dilutions. Rabbit anti-lamin-B1 from Santa Cruz Biotechnology (Santa Cruz, Calif.) was used at 1:1000 dilutions as a loading control. The Image J program was used for densitometry analyses.
as §4

[11] = cell lysates incubated with GSH
[12] = COPD alveolar macrophages, result in words

T1 sequence (Q92769 whole entry): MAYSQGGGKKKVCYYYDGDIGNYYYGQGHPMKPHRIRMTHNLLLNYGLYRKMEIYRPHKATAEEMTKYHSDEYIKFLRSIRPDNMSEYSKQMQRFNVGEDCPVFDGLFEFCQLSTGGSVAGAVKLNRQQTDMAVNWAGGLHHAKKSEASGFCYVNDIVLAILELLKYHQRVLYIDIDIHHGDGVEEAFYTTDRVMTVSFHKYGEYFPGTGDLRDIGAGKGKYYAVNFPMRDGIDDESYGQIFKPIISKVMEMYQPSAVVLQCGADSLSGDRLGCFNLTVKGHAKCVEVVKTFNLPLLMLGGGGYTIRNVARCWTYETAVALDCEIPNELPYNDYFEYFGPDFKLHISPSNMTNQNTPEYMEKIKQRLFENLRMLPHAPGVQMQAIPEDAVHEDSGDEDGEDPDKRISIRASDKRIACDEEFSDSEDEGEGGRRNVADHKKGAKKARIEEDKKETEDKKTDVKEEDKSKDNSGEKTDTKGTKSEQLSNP
Chain of recombinant HDAC2 (rHDAC2) (Q92769 whole entry, species assumed): as the sequence (Q92769 whole entry) above

**Q.** For `N[C@@H](CCC(=O)N[C@@H](CS)C(=O)NCC(=O)O)C(=O)O` [GSH, glutathione], which “rHDAC2 enzymatic activity after GSNO treatment” value ([1]; in the presence of GSH) is on record?
**A.** restored by GSH

**Q.** What about the “S-nitrosylation and enzymatic activity of GSNO-exposed IP-HDAC2” value ([2]; after incubation with GSH) of the same molecule?
**A.** reversed by GSH treatment

**Q.** What about the HDAC2 activity [2, 11] of the same molecule?
**A.** concurrent increase in HDAC2 activity

**Q.** What about the “nitrosylation (DAN assay)” value [2, 11] of the same molecule?
**A.** denitrosylation by GSH

**Q.** How did the HDAC2 enzymatic activity ([3]; treatment after GSNO exposure of alveolar macrophages) turn out when `CCOC(=O)CNC(=O)[C@H](CS)NC(=O)CC[C@H](N)C(=O)O` [GSH-e, GSH-ethyl ester] was run?
**A.** significantly elevated HDAC2 enzymatic activity

**Q.** What about the intracellular glutathione levels [4] of the same molecule?
**A.** increased intracellular glutathione levels

**Q.** What about the “levels of SNO-HDAC2” value [5] of the same molecule?
**A.** significant reduction in the levels of SNO-HDAC2

**Q.** And the “repressive effect of DEX on basal and LPS-induced IL-8 secretion” value ([6]; GSNO exposed COPD alveolar macrophages, GSH-e 1 mM)?
**A.** significantly increased the repressive effect of DEX

**Q.** And the bacterial clearance [7]?
**A.** failed to improve bacterial clearance

**Q.** `N[C@@H](CCC(=O)N[C@@H](CSN=O)C(=O)NCC(=O)O)C(=O)O` [GSNO, S-nitrosoglutathione] was tested. Which rHDAC2 enzymatic activity ([1]; with GSNO) did it give?
**A.** significantly inhibited rHDAC2 enzymatic activity

**Q.** What about the HDAC2 enzymatic activity [3, 12] of the same molecule?
**A.** decreased HDAC2 enzymatic activity

**Q.** And the “S-nitrosylation of IP-HDAC2” value ([2]; GSNO exposure)?
**A.** elevated S-nitrosylation

**Q.** And the “enzymatic activity of IP-HDAC2” value ([2]; GSNO exposure)?
**A.** decreased enzymatic activity

**Q.** And the DEX resistance ([6]; GSNO exposure)?
**A.** did not further increase DEX resistance

**Q.** What about the “LPS-induced IL-8 secretion” value ([6]; GSNO treatment (10 μM, 4 h)) of the same molecule?
**A.** moderately augmented LPS-induced IL-8 secretion

**Q.** Which HDAC2 enzymatic activity [3, 12] does the source give for `COC(=O)[C@@H](N)CCCNC(=N)N[N+](=O)[O-]` [L-NAME, L-nitroarginine methyl ester] here?
**A.** failed to increase HDAC2 enzymatic activity

**Q.** What about the “tyrosine nitration of HDAC2 (nitrotyrosine-HDAC2)” value ([5]; immunopurified HDAC2 from alveolar macrophages, compared with vehicle) of the same molecule?
**A.** significantly decreased levels of nitrotyrosine-HDAC2

**Q.** What about the “DEX's repressive effect on basal and LPS-induced IL-8 expression (DEX responsiveness)” value ([6]; protein and mRNA) of the same molecule?
**A.** failed

**Q.** What about the NO levels [8] of the same molecule?
**A.** suppressed NO generation

**Q.** Which results are given for `CC(C)C[C@@H](C=O)NC(=O)[C@H](CC(C)C)NC(=O)[C@H](CC(C)C)NC(=O)OCc1ccccc1` [MG132] (Cbz-Leu-Leu-Leu-aldehyde)?
**A.** HDAC2 enzymatic activity [3, 12]: no increase in HDAC2 enzymatic activity; HDAC2 binding in the IL-8 promoter ([9]; COPD alveolar macrophages): no increase; HDAC2 protein levels [10]: increase in total HDAC2 protein

**Q.** Which intracellular glutathione levels [4] does the source give for `CC(=O)N[C@@H](CS)C(=O)O` [NAC, N-acetyl cysteine] here?
**A.** increased intracellular glutathione levels

**Q.** What about the “levels of SNO-HDAC2” value [5] of the same molecule?
**A.** failed to ameliorate SNO-HDAC2 levels

**Q.** What about the bacterial clearance [7] of the same molecule?
**A.** failed to improve bacterial clearance

**Q.** How did the “basal and LPS-induced histone acetylation in the IL-8 promoter region” value ([9]; cotreatment with sulforaphane, with and without DEX) turn out when `CC(/C=C/C(=O)NO)=C\[C@@H](C)C(=O)c1ccc(N(C)C)cc1` [TSA, trichostatin] was run?
**A.** ablated sulforaphane repressed basal and LPS-induced histone acetylation

Source: US20130039928A1, “COMPOSITIONS AND METHODS FOR REVERSING CORTICOSTEROID RESISTANCE OR TREATING RESPIRATORY INFECTIONS” (priority 2010, published 2013)
